According to patent US6737383B1, “Herbicidal oxadiazolidines” (priority 1999, dated 2004):

Tests used:
[1] = tested on: velvetleaf; experiment: Test B pre/postemergence velvetleaf; assay type: in vivo, Abutilon theophrasti
How it was run: (§1)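 Herbicidal effect was estimated by eye on a ten-point control scale after plants spent twelve to sixteen days in a greenhouse following soil or foliar treatment. Foliar sprays targeted plants at one to four leaves; all doses were formulated in a non-phytotoxic solvent with surfactant.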

[2] = tested on: bamyardgrass; experiment: Test B flood test barnyardgrass; assay type: in vivo, Echinochloa crus-galli
How it was run: (§2)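 Flood test on plants grown to the 2-leaf stage; treated plants kept in greenhouse twelve to sixteen days, then visually rated against controls on a 0 (no effect) to 10 (complete control) scale.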

[3] = tested on: surinam grass; experiment: Test B pre/postemergence surinam grass; assay type: in vivo, Brachiaria decumbens
How it was run: as §1

[4] = tested on: purple nutsedge; experiment: Test B pre/postemergence purple nutsedge; assay type: in vivo, Cyperus rotundus
How it was run: as §1

[5] = tested on: sugar beet; experiment: Test B pre/postemergence sugar beet; assay type: in vivo, Beta vulgaris
How it was run: as §1

[6] = tested on: pigweed; experiment: Test B pre/postemergence pigweed; assay type: in vivo, Amaranthus retroflexus
How it was run: as §1

[7] = tested on: wheat; experiment: Test B pre/postemergence wheat; assay type: in vivo, Triticum aestivum
How it was run: as §1

[8] = tested on: wild oat; experiment: Test B pre/postemergence wild oat; assay type: in vivo, Avena fatua
How it was run: as §1

[9] = tested on: duck salad; experiment: Test B flood test duck salad; assay type: in vivo, Heteranthera limosa
How it was run: as §2

[10] = tested on: bedstraw; experiment: Test B pre/postemergence bedstraw; assay type: in vivo, Galium aparine; conditions: for Bedstraw plant response rating: Postemergence
How it was run: as §1

[11] = tested on: blackgrass; experiment: Test B pre/postemergence blackgrass; assay type: in vivo, Alopecurus myosuroides
How it was run: as §1

[12] = tested on: morningglory; experiment: Test B pre/postemergence morningglory; assay type: in vivo, Ipomoea hederacea
How it was run: as §1

[13] = tested on: giant foxtail; experiment: Test B pre/postemergence giant foxtail; assay type: in vivo, Setaria faberii
How it was run: as §1

[14] = tested on: rice; experiment: Test B flood test rice; assay type: in vivo, Oryza sativa
How it was run: as §2

[15] = tested on: crabgrass; experiment: Test B pre/postemergence crabgrass; assay type: in vivo, Digitaria sanguinalis
How it was run: as §1

[16] = tested on: cocklebur; experiment: Test B pre/postemergence cocklebur; assay type: in vivo, Xanthium strumarium
How it was run: as §1

[17] = Preemergence, Rate 62 g/ha, scale of 0 to 10 where 0 is no effect and 10 is complete control
[18] = Preemergence, Rate 250 g/ha, scale of 0 to 10 where 0 is no effect and 10 is complete control
[19] = Preemergence, Rate 500 g/ha, scale of 0 to 10 where 0 is no effect and 10 is complete control
[20] = Rate 62 g/ha, Postemergence, scale 0 to 10 (0 no effect, 10 complete control)
[21] = Rate 125 g/ha, Postemergence, scale of 0 to 10 where 0 is no effect and 10 is complete control
[22] = Rate 250 g/ha, Postemergence, scale of 0 to 10 where 0 is no effect and 10 is complete control
[23] = Rate 62 g/ha, headed Pre-emergence (flood test species), scale 0 to 10 (0 no effect, 10 complete control)
[24] = Rate 125 g/ha, Pre-emergence, flood test species, scale 0 to 10 where 0 is no effect and 10 is complete control
[25] = Rate 250 g/ha, Pre-emergence, flood-test species, scale 0 to 10, 0 is no effect, 10 is complete control
[26] = Rate 500 g/ha, Pre-emergence, flood test species, scale 0 to 10 (0 no effect, 10 complete control)
[27] = Rate 500 g/ha, Postemergence, scale 0 to 10, 0 no effect, 10 complete control

CCN(C(=O)n1oc(=O)n(C2CC2)c1=O)C1CCCCC1 [Compound 298]
0: Velvetleaf plant response rating [1, 17] | Velvetleaf plant response rating (0 to 10 scale) ([1]; Preemergence, Rate 125 g/ha) | Velvetleaf plant response rating [1, 18] | Plant response rating, Velvetleaf [1, 19] | Velvetleaf plant response rating [1, 20] | Velvetleaf plant response rating [1, 21] | Plant response rating, Velvetleaf [1, 22] | Barnyardgrass plant response rating [2, 23] | Barnyardgrass plant response rating [2, 24] | Barnyardgrass plant response rating [2, 25] | Barnyardgrass plant response rating [2, 26] | B. signalgrass plant response rating [3, 17] | B. signalgrass plant response rating (0 to 10 scale, 0 is no effect, 10 is complete control) ([3]; Preemergence, Rate 125 g/ha) | B. signalgrass plant response rating [3, 18] | Plant response rating, B. signalgrass [3, 19] | B. signalgrass plant response rating [3, 20] | B. signalgrass plant response rating [3, 21] | Plant response rating, B. signalgrass [3, 22] | B. signalgrass plant response rating [3, 27] | Nutsedge plant response rating [4, 17] | Nutsedge plant response rating (0 to 10 scale) ([4]; Preemergence, Rate 125 g/ha) | Nutsedge plant response rating [4, 18] | Plant response rating, Nutsedge [4, 19] | Nutsedge plant response rating [4, 20] | Nutsedge plant response rating [4, 21] | Plant response rating, Nutsedge [4, 22] | Sugarbeets plant response rating [5, 17] | Sugarbeets plant response rating (0 to 10 scale) ([5]; Preemergence, Rate 125 g/ha) | Sugarbeets plant response rating [5, 18] | Plant response rating, Sugarbeets [5, 19] | Sugarbeets plant response rating [5, 20] | Sugarbeets plant response rating [5, 21] | Plant response rating, Sugarbeets [5, 22] | Redroot pigweed plant response rating [6, 17] | Redroot pigweed plant response rating (0 to 10 scale) ([6]; Preemergence, Rate 125 g/ha) | Redroot pigweed plant response rating [6, 18] | Plant response rating, Redroot pigweed [6, 19] | Redroot pigweed plant response rating [6, 20] | Redroot pigweed plant response rating [6, 21] | Plant response rating, Redroot pigweed [6, 22] | Wheat plant response rating [7, 17] | Wheat plant response rating (0 to 10 scale) ([7]; Preemergence, Rate 125 g/ha) | Wheat plant response rating [7, 18] | Plant response rating, Wheat [7, 19] | Wheat plant response rating [7, 20] | Wheat plant response rating [7, 21] | Plant response rating, Wheat [7, 22] | Wild oats plant response rating [8, 17] | Wild oats plant response rating (0 to 10 scale) ([8]; Preemergence, Rate 125 g/ha) | Wild oats plant response rating [8, 18] | Plant response rating, Wild oats [8, 19] | Wild oats plant response rating [8, 20] | Wild oats plant response rating [8, 21] | Plant response rating, Wild oats [8, 22] | Ducksalad plant response rating [9, 23] | Ducksalad plant response rating [9, 24] | Ducksalad plant response rating [9, 25] | Ducksalad plant response rating [9, 26] | Bedstraw plant response rating (0 to 10 scale) ([10]; Preemergence, Rate 125 g/ha) | Bedstraw plant response rating ([10]; Rate 62 g/ha, scale 0 to 10 (0 no effect, 10 complete control)) | Bedstraw plant response rating ([10]; Rate 125 g/ha, scale of 0 to 10 where 0 is no effect and 10 is complete control) | Blackgrass plant response rating [11, 17] | Blackgrass plant response rating [11, 18] | Plant response rating, Blackgrass [11, 19] | Blackgrass plant response rating [11, 20] | Blackgrass plant response rating [11, 21] | Plant response rating, Blackgrass [11, 22] | Blackgrass plant response rating [11, 27] | Morningglory plant response rating [12, 17] | Morningglory plant response rating (0 to 10 scale) ([12]; Preemergence, Rate 125 g/ha) | Morningglory plant response rating [12, 18] | Plant response rating, Morningglory [12, 19] | Morningglory plant response rating [12, 20] | Giant foxtail plant response rating [13, 17] | Giant foxtail plant response rating (0 to 10 scale) ([13]; Preemergence, Rate 125 g/ha) | Giant foxtail plant response rating [13, 20] | Giant foxtail plant response rating [13, 21] | Plant response rating, Giant foxtail [13, 22] | Rice plant response rating [14, 23] | Rice plant response rating [14, 24] | Rice plant response rating [14, 25] | Rice plant response rating [14, 26] | Crabgrass plant response rating [15, 17] | Crabgrass plant response rating (0 to 10 scale) ([15]; Preemergence, Rate 125 g/ha) | Crabgrass plant response rating [15, 18] | Plant response rating, Crabgrass [15, 19] | Crabgrass plant response rating [15, 20] | Crabgrass plant response rating [15, 21] | Plant response rating, Crabgrass [15, 22] | Cocklebur plant response rating [16, 17] | Cocklebur plant response rating (0 to 10 scale) ([16]; Preemergence, Rate 125 g/ha) | Cocklebur plant response rating [16, 18] | Plant response rating, Cocklebur [16, 19] | Cocklebur plant response rating [16, 20] | Cocklebur plant response rating [16, 21] | Plant response rating, Cocklebur [16, 22] | Cocklebur plant response rating [16, 27]
3: Morningglory plant response rating [12, 21] | Plant response rating, Morningglory [12, 22]
